Consider one compound from patent publication US20250221983A1, “PHARMACEUTICAL COMPOSITION FOR PREVENTING RELAPSE INTO CANNABIS USE AND APPLICATION THEREOF” (Shenzhen ScienCare Pharmaceutical Co., Ltd, priority 2023, published 2025).

Type in all cases: in vivo, LE rats
In test [1] the test system is LE rat self-administration model. The experiment in a line: Drug (WIN55,212-2) and environmental cue-induced relapse test in self-administration model. Particulars: rimonabant 2 mg/kg, implants 4 tablets/rat. On the procedure: The rats received 2 h of environmental regression again. During the regression, only the spatial environment during the self-administration training was presented, without other clues such as lights and pump sounds as well as drug injections. The computer automatically recorded the number of behavioral responses of rats, and the regression was continued until reaching the criteria.
In the rimonabant group, rats were administered the rimonabant injection (2 mg/kg, ip) 15 min before the test through intraperitoneal injection at a dose of 2 mg per kilogram of body weight. In the control group, rats were administered normal saline 15 min before the test. In the implant administration groups, there would be no administration. All rats were administered cannabis (WIN55,212-2 injection 0.3 mg/kg, ip) through intraperitoneal injection at a dose of […] of body weight, and then a 2-h drug and environmental cue-induced relapse test was immediately performed. The cues were consistent with those of self-administration training, including levers and syringe pump sound, but no drug in the syringe pump. The number of injections and effective lever pressing data were recorded by the computer.
In the control group, rats were administered normal saline 15 min before the test, and in the implant groups, there would be no administration. All rats were administered WIN55,212-2 (0.3 mg/kg, i.p) through intraperitoneal administration, and then a 2-h drug and environmental cue-induced relapse test was immediately performed. The cues were consistent with those of self-administration training, including levers and syringe pump sound, but no drug in the syringe pump. The number of injections and effective lever pressing data were recorded by the computer.

Test [2] deals with LE rat self-administration. Kind of test: Addiction formation: WIN55,212-2 self-administration training. As for the experimental part:
(§1) In each self-administration process, the effective lever was activated, and the injection system performed automatic administration ([…]). Each injection was about 0.1 mL, with a duration of 4 s-6 s. Meanwhile, each injection would be accompanied by the effective lever light turning on for 10 s and the room light turning off for 20 s. […] Data of activating the ineffective lever was recorded, but no drug injection was given. During the training, the computer automatically recorded the number of effective and ineffective lever presses and the number of injections. During the training, food was restricted to 12 g.
In the control group and rimonabant group, sham operations were performed. After 3 days of postoperative care, addiction formation training was started on the fourth day.
In the control group and rimonabant group, rats were administered the corresponding compound 15 min before the daily training. The rimonabant was at a dosage of 2 mg/kg, i.p. In the control group, rats were administered normal saline, and in the implant administration groups, there would be no administration. The training operation was the same as the self-administration training in example 1. During the training, the computer automatically recorded the number of effective and ineffective lever presses and the number of injections. During the training, food was restricted to 12 g.

The test system of test [3] is LE rat self-administration model. The experiment in a line: Environmental cue-induced relapse test in WIN55,212-2 self-administration model. Particulars: rimonabant 2 mg/kg, implants 4 tablets/rat. As for the experimental part: as §1
Test [4] relates to LE rat self-administration. The experiment in a line: Regression of drug-seeking behavior after self-administration training. On the procedure:
After the establishment of the self-administration model, the rats received 2 h of environmental regression for each round of regression training. During the regression, only the spatial environment and lever during the training were presented, without other clues such as lights and pump sounds as well as drug injections. The computer automatically recorded the number of behavioral responses of rats, and the rats reached the regression criteria (i.e., the total number of effective lever presses decreased to 20% of the total number of effective lever presses on the first day of the regression training or less than 10 times).

Where [5] appears, read: 2 h test after WIN55,212-2 ip, n = 10.
Where [6] appears, read: re-regression before cue + drug test, n = 10.
The mark [7] stands for this setting: female LE rats, rimonabant 2 mg/kg, implants 4 tablets/rat, n = 10.
Where [8] appears, read: 2 h environmental cue-induced relapse test, n = 10.
Where [9] appears, read: last regression before cue test, n = 10.

“Also recorded” adds a separate entry of the source.

As to `Cc1c(C(=O)NN2CCCCC2)nn(-c2ccc(Cl)cc2Cl)c1-c1ccc(Cl)cc1` [Rimonabant], in test [1] (setting [5]), the “Number of effective lever presses, Cue + drug priming” value was determined as 63.50 ± 16.15 and the “Number of ineffective lever presses, Cue + drug priming” value was found to be 8.10 ± 2.08. Besides, in test [1] (setting [6]), the “Number of effective lever presses, Re-Ext” value came to 10.30 ± 2.72 and the “Number of ineffective lever presses, Re-Ext” value is reported as 5.20 ± 3.0. The “cue and drug-induced relapse behavior (number of effective lever presses compared with the control group), in words” value in test [1] is “no significant inhibition effect; also recorded: not significant”. Further, in test [2] (compared with the control group), the “inhibition of the increase in the number of effective lever presses caused by addiction formation of win55,212-2, in words” value is on record as “significantly inhibited; also recorded: significant inhibition effect”. Besides, in test [2] (setting [7]), the “Addiction formation (26 days): Number of effective lever presses” value stood at 45.70 ± 8.21 and the “Addiction formation (26 days): Number of ineffective lever presses” value turned out to be 9.49 ± 1.05. In addition, in test [3] (setting [8]), the “Number of effective lever presses, Cue priming” value turned out to be 57.70 ± 10.27 and the “Number of ineffective lever presses, Cue priming” value is given as 12.10 ± 3.33. In addition, in test [3] (setting [9]), the “Number of effective lever presses, Last-Ext” value worked out at 6.80 ± 1.62 and the “Number of ineffective lever presses, Last-Ext” value turned out to be 3.10 ± 0.86. Further, the “cue-induced relapse behavior (number of effective lever presses compared with the control group), in words” value in test [3] was “no significant inhibition effect; also recorded: not significant”. Further, in test [4] (compared with other groups), the “effect on the regression process of cannabis addiction, in words” value was “may accelerate the regression process and reduce the regression days”. For the same compound, in test [4] (setting [7]), the “Regression (13 sessions): First stabilization” value worked out at 7 days and the “Regression (13 sessions): Number of effective lever presses” value came out at 9.27 ± 2.21.
